Assay results as given in ChEMBL document CHEMBL1201862, “PubChem BioAssay data set” (2004).
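Each compound was tested at five concentrations against cells in 96-well plates for 48 hours. The concentration for 50% growth inhibition is given as GI50.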 The source made the active and inactive calls. Cut-off read from the data, not from the text of the source: active = GI50 up to about 1.1 µM and inactive = higher.

Experiments:
Assay in all cases: NCI anticancer screen, dose series, 48 h
NCI-H460 = system: NCI-H460
SW-620 = system: SW-620
PC-3 = system: PC-3
HOP-92 = system: HOP-92
MDA-MB-435 = system: MDA-MB-435
BT-549 = system: BT-549
MOLT-4 = system: MOLT-4
A498 = system: A498
SNB-75 = system: SNB-75
SK-MEL-5 = system: SK-MEL-5
RPMI-8226 = system: RPMI-8226
SF-295 = system: SF-295
SF-539 = system: SF-539
HL-60 = system: HL-60
CCRF-CEM = system: CCRF-CEM
Malme-3M = system: Malme-3M
NCI-H23 = system: NCI-H23
CAKI-1 = system: CAKI-1
A549 = system: A549
UACC-62 = system: UACC-62

Compound | GI50 (NCI-H460) | GI50 (SW-620) | GI50 (PC-3) | GI50 (HOP-92) | GI50 (MDA-MB-435) | GI50 (BT-549) | GI50 (MOLT-4) | GI50 (A498) | GI50 (SNB-75) | GI50 (SK-MEL-5) | GI50 (RPMI-8226) | GI50 (SF-295) | GI50 (SF-539) | GI50 (HL-60) | GI50 (CCRF-CEM) | GI50 (Malme-3M) | GI50 (NCI-H23) | GI50 (CAKI-1) | GI50 (A549) | GI50 (UACC-62)
CCC(C)NC1=NCC(C)S1 (stereo not given) | > 100 µM (inactive) | > 100 µM (inactive) | > 100 µM (inactive) | > 100 µM (inactive) | > 100 µM (inactive) | > 100 µM (inactive) | > 100 µM (inactive) | > 100 µM (inactive) | > 100 µM (inactive) | > 100 µM (inactive) | > 100 µM (inactive) | > 100 µM (inactive) | > 100 µM (inactive) | > 100 µM (inactive) | > 100 µM (inactive) | > 100 µM (inactive) | > 100 µM (inactive) | > 100 µM (inactive) | > 100 µM (inactive) | > 100 µM (inactive)
CCOC(=O)C(C)(C)C(O)C(C)C (stereo not given) | > 100 µM (inactive) | > 100 µM (inactive) | > 100 µM (inactive) | > 100 µM (inactive) | > 100 µM (inactive) | > 100 µM (inactive) | > 100 µM (inactive) | > 100 µM (inactive) | > 100 µM (inactive) | > 100 µM (inactive) | > 100 µM (inactive) | > 100 µM (inactive) | > 100 µM (inactive) | > 100 µM (inactive) | > 100 µM (inactive) | > 100 µM (inactive) | > 100 µM (inactive) | > 100 µM (inactive) | > 100 µM (inactive) | > 100 µM (inactive)
CN(CCCNC(=O)c1nn(-c2ccccc2)c2c1ccc1ccccc12)CCCNC(=O)c1nn(-c2ccccc2)c2c1ccc1ccccc12 | 1.76 µM (inactive) | 1.95 µM (inactive) | 1.52 µM (inactive) | 1.83 µM (inactive) | 1.75 µM (inactive) | 1.68 µM (inactive) | 1.98 µM (inactive) | 1.65 µM (inactive) | 1.64 µM (inactive) | 1.77 µM (inactive) | 1.47 µM (inactive) | 1.87 µM (inactive) | 1.96 µM (inactive) | 0.221 µM (active) | 0.178 µM (active) | 1.77 µM (inactive) | 1.82 µM (inactive) | 1.61 µM (inactive) | 1.84 µM (inactive) | 1.6 µM (inactive)
Cc1ccc2nc(-c3ccc(C(C)(C)C)cc3)oc(=O)c2c1 | 16.2 µM (inactive) | 26.3 µM (inactive) | 20.7 µM (inactive) | 29 µM (inactive) | 14.7 µM (inactive) | 24.4 µM (inactive) | 17 µM (inactive) | 24.8 µM (inactive) | 14.2 µM (inactive) | 14.3 µM (inactive) | 21 µM (inactive) | 17.8 µM (inactive) | 18.2 µM (inactive) | 16.6 µM (inactive) | 20.7 µM (inactive) | 21.6 µM (inactive) | 19.6 µM (inactive) | 19.4 µM (inactive) | 14.6 µM (inactive) | 17.5 µM (inactive)
CCCCCCCCCCCCCCCCCCOP(=O)([O-])OC1CC[N+](C)(C)CC1 [PERIFOSINE] | 1.75 µM (inactive) | 8.05 µM (inactive) | 0.873 µM (active) | 3.38 µM (inactive) | 14.7 µM (inactive) | 12.2 µM (inactive) | 3.4 µM (inactive) | 3.22 µM (inactive) | 5.14 µM (inactive) | 15.8 µM (inactive) | 3.83 µM (inactive) | 4.98 µM (inactive) | 15.6 µM (inactive) | 1.19 µM (inactive) | 0.714 µM (active) | 7.06 µM (inactive) | 16.1 µM (inactive) | 3.6 µM (inactive) | 10.7 µM (inactive) | 8.39 µM (inactive)
